Source: PubChem BioAssay AID2060495 (Molecular Pharmacology Branch, DTP, NCI, 2025)
Values joined by “and” are separate entries in the source; they are usually repeats but may differ in a detail not shown here. Equal entries are not always repeated.

Tested on: 521955-158-R2-J5-PDC complex spheroid viability
Test: Anticancer human tumor 521955-158-R2-J5-PDC patient-derived pancreatic carcinoma cell line growth inhibition [GQUAD]
Conditions: for viability, T/C: stronger effect = lower value
Excerpt: DNA G-quadruplex Stabilizer Agents in Combinations in Complex Spheroids
A high-throughput screen of multi-cell type tumor spheroids was designed to identify active combinations of DNA G-quadruplex stabilizer agents and targeted small molecules. Complex spheroids include a stromal component modeled by human endothelial cells (HUVEC) and fibroblasts modeled by human mesenchymal stem cells (MSCs). The concentration ranges selected for each drug and investigational agent were based upon clinically achievable concentrations if the clinical Cmax of the agent was known.
Compounds. The drugs and investigational agents: pidnarulex (CX-5461; NSC782164), APTO-253 (NSC789042), BRACO-19 (NSC847499), peposertib (NSC802822), ceralasertib (NSC780249), elimusertib (NSC800525), camonsertib (NSC841442), AZD-1390 (NSC803789), olaparib (NSC753686), talazoparib (NSC767125), ART-558 (NSC835418), sotorasib (NSC818433), MRTX-1133 (NSC836407), SN-38 (NSC673596), topotecan (NSC609699), etoposide (NSC141540), doxorubicin (NSC123127), gemcitabine (NSC613327), 5-fluorouracil (NSC19893), paclitaxel (NSC125973), vemurafenib (NSC761431), panobinostat (NSC761190), R-306465 (JNJ-16241199; NSC773264), adavosertib (NSC754352), TP-3654 (NSC805149), carboplatin (NSC241240), KSQ-4279 (NSC840948), and staurosporine (NSC755774) were obtained from the National Cancer Institute (NCI) Developmental Therapeutics Program Chemical Repository (34). The FDA-approved anticancer drug set is available from the NCI Developmental Therapeutics Program. […] The stock solutions were prepared in dimethyl sulfoxide (DMSO, Sigma-Aldrich, St. Louis, MO, cat. D2650) at 800-fold the tested concentration and stored at -70 degrees C prior to their use. All drugs and investigational agents were tested over a range starting from a high concentration at or near the clinical Cmax and decreasing in half-log increments. If the clinical Cmax for an agent had not been determined, the highest concentration tested was 10 microM.
2.3 Cell Culture. All cells were maintained in an incubator at 37 degrees C and 5% CO2 with 95% humidity. The PDC lines were cultured according to standard operating procedures established by the NCI PDMR. All PDCs were thawed and cultured in Matrigel-coated flasks prepared with a working solution of 1X Ham's F-12 nutrient mix, without supplementation (Invitrogen, cat. 11765054), 100 U/mL penicillin-streptomycin (Invitrogen, cat. 15140122), and 2.5% Matrigel (Corning Inc., cat. 354248) for the first three passages. The 857933-349-R-J2-PDC line was cultured in 6C/Colon 1B media, which includes advanced DMEM/F-12 (Thermo Fisher Scientific, cat. 12634028), 10 mM HEPES (Thermo Fisher Scientific, cat. 15630080), 1X GlutaMAX supplement (Thermo Fisher Scientific, cat. 35050061), 0.1 mg/mL primocin (InvivoGen, cat. ant-pm-2), 10% defined fetal bovine serum, heat inactivated (HyClone Laboratories Inc., cat. SH30070.03HI), 50% L-WRN conditioned media (ATCC, cat. CRL-3276), 1.25 mM N-Acetyl-L-cysteine (Sigma-Aldrich, cat. A9165), 10 mM nicotinamide (Sigma-Aldrich, cat. N0636), 1X B-27 supplement (Thermo Fisher Scientific, cat. 17504044), 1X N-2 supplement (Thermo Fisher Scientific, cat. 17502048), 10 microM Y-27632 dihydrochloride (Tocris Bioscience, cat. 1254), and 50 ng/mL human EGF recombinant protein (Thermo Fisher Scientific, cat. PHG0311). The 485176-168-R4-J1-PDC line was cultured in Panc media, which includes all 6C/Colon 1B media components plus 100 ng/mL human FGF-10 (Thermo Fisher Scientific, cat. 100-26), 500 nM SB-431542 (Selleckchem, cat. S1067), and gastrin (Tocris, cat. 3006).
[…]

[1] = curve of first compound, second compound 0.0316 µM
[2] = curve of first compound, second compound 0.1 µM
[3] = curve of first compound, second compound 0.316 µM
[4] = curve of first compound, second compound 1 µM
[5] = curve of first compound, second compound 3.16 µM
[6] = curve of first compound, second compound 10 µM
[7] = second compound 0.0316 µM, first compound 0.0316 µM
[8] = second compound 0.0316 µM, first compound 0.1 µM
[9] = second compound 0.0316 µM, first compound 0.316 µM
[10] = second compound 0.0316 µM, first compound 1 µM
[11] = second compound 0.0316 µM, first compound 3.16 µM
[12] = second compound 0.0316 µM, first compound 10 µM
[13] = second compound 0.1 µM, first compound 0.0316 µM
[14] = second compound 0.1 µM, first compound 0.1 µM
[15] = second compound 0.1 µM, first compound 0.316 µM
[16] = second compound 0.1 µM, first compound 1 µM
[17] = second compound 0.1 µM, first compound 3.16 µM
[18] = second compound 0.1 µM, first compound 10 µM
[19] = second compound 0.316 µM, first compound 0.0316 µM
[20] = second compound 0.316 µM, first compound 0.1 µM
[21] = second compound 0.316 µM, first compound 0.316 µM
[22] = second compound 0.316 µM, first compound 1 µM
[23] = second compound 0.316 µM, first compound 3.16 µM
[24] = second compound 0.316 µM, first compound 10 µM
[25] = second compound 1 µM, first compound 0.0316 µM
[26] = second compound 1 µM, first compound 0.1 µM
[27] = second compound 1 µM, first compound 0.316 µM
[28] = second compound 1 µM, first compound 1 µM
[29] = second compound 1 µM, first compound 3.16 µM
[30] = second compound 1 µM, first compound 10 µM
[31] = second compound 3.16 µM, first compound 0.0316 µM
[32] = second compound 3.16 µM, first compound 0.1 µM
[33] = second compound 3.16 µM, first compound 0.316 µM
[34] = second compound 3.16 µM, first compound 1 µM
[35] = second compound 3.16 µM, first compound 3.16 µM
[36] = second compound 3.16 µM, first compound 10 µM
[37] = second compound 10 µM, first compound 0.0316 µM
[38] = second compound 10 µM, first compound 0.1 µM
[39] = second compound 10 µM, first compound 0.316 µM
[40] = second compound 10 µM, first compound 1 µM
[41] = second compound 10 µM, first compound 3.16 µM
[42] = second compound 10 µM, first compound 10 µM
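Also: spheroids exposed to agents for one week before reading.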
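For viability, T/C in this document: 100% = DMSO vehicle control viability.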

O=C(NO)c1cnc(N2CCN(S(=O)(=O)c3ccc4ccccc4c3)CC2)nc1 + Cc1[nH]c2ccc(F)cc2c1-c1nc2c3cccnc3c3ncccc3c2[nH]1 gave an IC50 [1] of 758 nM, an IC50 [2] of 966 nM and an IC50 [3] of 1430 nM. For the same compound, the IC50 [4] was 1380 nM, the IC50 [5] was 1490 nM and the IC50 [6] was 1760 nM. For the same compound, the viability, T/C [7] was 115%, the viability, T/C [8] was 124% and the viability, T/C [9] was 84.3%. It also gave a viability, T/C [10] of 41.8%, a viability, T/C [11] of 0.18% and a viability, T/C [12] of 0.17%. The viability, T/C [13] was 99.1%, the viability, T/C [14] was 142% and the viability, T/C [15] was 111%. The viability, T/C [16] was 48.5%, the viability, T/C [17] was 0.18% and the viability, T/C [18] was 0.23%. The viability, T/C [19] was 100%, the viability, T/C [20] was 137% and the viability, T/C [21] was 113%. The viability, T/C [22] was 72.3%, the viability, T/C [23] was 0.17% and the viability, T/C [24] was 0.17%. It also gave a viability, T/C [25] of 101%, a viability, T/C [26] of 132% and a viability, T/C [27] of 120%. It also gave a viability, T/C [28] of 69.3%, a viability, T/C [29] of 0.29% and a viability, T/C [30] of 0.13%. The viability, T/C [31] was 96.8%, the viability, T/C [32] was 123% and the viability, T/C [33] was 105%. It also gave a viability, T/C [34] of 75.9%, a viability, T/C [35] of 0.29% and a viability, T/C [36] of 0.48%. It also gave a viability, T/C [37] of 99.1%, a viability, T/C [38] of 106% and a viability, T/C [39] of 101%. It also gave a viability, T/C [40] of 97.8%, a viability, T/C [41] of 0.55% and a viability, T/C [42] of 0.36%.
C#Cc1c(F)ccc2cc(O)cc(-c3ncc4c(N5CC6CCC(C5)N6)nc(OCC56CCCN5CC(F)C6)nc4c3F)c12 (stereo not drawn) + Cc1[nH]c2ccc(F)cc2c1-c1nc2c3cccnc3c3ncccc3c2[nH]1 was tested, and the IC50 [1] was 1640 nM, the IC50 [2] was > 10000 nM and the IC50 [3] was 3500 nM. It also gave an IC50 [4] of 7530 nM, an IC50 [5] of 4290 nM and an IC50 [6] of 1040 nM. It also gave a viability, T/C [7] of 79.8%, a viability, T/C [8] of 68.6% and a viability, T/C [9] of 67.3%. For the same compound, the viability, T/C [10] was 40.5%, the viability, T/C [11] was 57% and the viability, T/C [12] was 36.3%. For the same compound, the viability, T/C [13] was 82.2%, the viability, T/C [14] was 81% and the viability, T/C [15] was 64.4%. For the same compound, the viability, T/C [16] was 45.1%, the viability, T/C [17] was 58.3% and the viability, T/C [18] was 46.4%. For the same compound, the viability, T/C [19] was 74.9%, the viability, T/C [20] was 67.4% and the viability, T/C [21] was 53%. For the same compound, the viability, T/C [22] was 61%, the viability, T/C [23] was 54% and the viability, T/C [24] was 42.7%. For the same compound, the viability, T/C [25] was 58.9%, the viability, T/C [26] was 72.2% and the viability, T/C [27] was 68.2%. It also gave a viability, T/C [28] of 57.5%, a viability, T/C [29] of 59.1% and a viability, T/C [30] of 47.4%. For the same compound, the viability, T/C [31] was 54.1%, the viability, T/C [32] was 58.5% and the viability, T/C [33] was 59.5%. It also gave a viability, T/C [34] of 50%, a viability, T/C [35] of 62.7% and a viability, T/C [36] of 30.9%. The viability, T/C [37] was 53.3%, the viability, T/C [38] was 55.4% and the viability, T/C [39] was 60.6%. It also gave a viability, T/C [40] of 47.4%, a viability, T/C [41] of 39.4% and a viability, T/C [42] of 26.6%.
With Cn1ncnc1[C@H]1c2n[nH]c(=O)c3cc(F)cc(c23)N[C@@H]1c1ccc(F)cc1 the viability, T/C (compound 0.000999 µM) was 94.9% and 94.7% and 84.8%, the viability, T/C (compound 0.00316 µM) was 81.5% and 95.2% and 80.6% and the viability, T/C (compound 0.00999 µM) was 92.4% and 99.2% and 79.1%. The viability, T/C (compound 0.0316 µM) was 78.9% and 94.1% and 78.3%, the viability, T/C (compound 0.0999 µM) was 86.8% and 89.5% and 85.8% and the viability, T/C (compound 0.316 µM) was 60.1% and 87.9% and 72.1%. The IC50 (curve of compound) was > 316 nM.
CN(C)c1ccc(Nc2c3ccc(NC(=O)CCN4CCCC4)cc3nc3cc(NC(=O)CCN4CCCC4)ccc23)cc1 was tested, and the viability, T/C (compound 0.0316 µM) was 107% [middle of 12 runs], the viability, T/C (compound 0.1 µM) was 103% [middle of 12 runs] and the viability, T/C (compound 0.316 µM) was 98% [middle of 12 runs]. The viability, T/C (compound 1 µM) was 89.4% [middle of 12 runs], the viability, T/C (compound 3.16 µM) was 82.5% [middle of 12 runs] and the viability, T/C (compound 10 µM) was 72.5% [middle of 12 runs]. The IC50 (compound alone, run of 04/22/2024) was > 10000 nM.
